Assay [1] addresses Beta-1 adrenergic receptor (Cavia porcellus) (UniProt B0FL73).
Description: Intrinsic activity was expressed as the ratio between maximal response elicited by compound and that elicited by full agonist ISO towards Beta-1 adrenergic receptor of isolated guinea pig atria
The target in assay [2] is T1, Adrenergic receptor alpha-1 (Rattus norvegicus) (UniProt P15823+P23944+P43140). The assay can be described thus: Compound was evaluated for alpha adrenoceptor agonistic activity towards Alpha-1 adrenergic receptor of isolated rat vas deferens. The format is functional, tissue-based.
The target in assay [3] is Beta-2 adrenergic receptor (Cavia porcellus) (UniProt Q8K4Z4).
Description: Compound was evaluated for beta adrenoceptor agonistic activity towards beta 2 receptor of isolated guinea pig tracheal strip
Assay [4] concerns the target T2, Beta-2 adrenergic receptor (Bos taurus, UniProt Q28044). The assay can be described thus: Compound was evaluated for beta adrenergic binding affinity towards beta-2 receptor of bovine lung.
The target in assay [5] is T3, Adrenergic receptor alpha-2 (Homo sapiens) (UniProt P08913+P18825+P18089). The conditions noted are these: Cavia porcellus; Ileum.
Description: Intrinsic activity was expressed as the ratio between maximal response elicited by compound and that elicited by full agonist NE towards Alpha-2 adrenergic receptor of isolated guinea pig ileum
Assay [6] concerns the target T1, Adrenergic receptor alpha-1 (Rattus norvegicus). The conditions noted are these: Vas deferens.
In assay [7] the target is Beta-1 adrenergic receptor (Rattus norvegicus, UniProt P18090).
Sequence of Beta-1 adrenergic receptor (P18090 whole entry): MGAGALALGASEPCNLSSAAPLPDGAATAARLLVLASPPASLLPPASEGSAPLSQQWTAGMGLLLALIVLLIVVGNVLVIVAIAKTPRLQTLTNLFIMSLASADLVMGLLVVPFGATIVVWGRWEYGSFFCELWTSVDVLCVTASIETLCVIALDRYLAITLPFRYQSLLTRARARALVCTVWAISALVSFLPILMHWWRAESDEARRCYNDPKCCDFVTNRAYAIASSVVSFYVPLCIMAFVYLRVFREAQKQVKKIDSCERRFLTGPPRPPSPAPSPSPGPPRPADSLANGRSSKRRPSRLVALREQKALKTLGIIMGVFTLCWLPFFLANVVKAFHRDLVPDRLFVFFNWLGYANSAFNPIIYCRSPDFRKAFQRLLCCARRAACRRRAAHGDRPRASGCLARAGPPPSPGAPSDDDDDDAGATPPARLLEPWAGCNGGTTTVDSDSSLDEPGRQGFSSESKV
Description: Compound was evaluated for beta adrenergic binding affinity towards Beta-1 adrenergic receptor of rat brain
Assay [8] has as its target T2, Beta-2 adrenergic receptor. The assay can be described thus: Compound was evaluated for beta adrenergic binding affinity towards Beta-2 adrenergic receptor of bovine lung.
Assay [9] deals with Beta-2 adrenergic receptor (Cavia porcellus) (UniProt Q8K4Z4). The source holds these as a separate data set.
Description: Compound was evaluated for beta adrenoceptor agonistic activity towards Beta-2 adrenergic receptor of isolated guinea pig tracheal strip (exp 2)
In assay [10] the target is T4, Adrenergic receptor alpha-2 (Rattus norvegicus, UniProt P22086+P19328+P22909).
T4 sequence (P22086 whole entry): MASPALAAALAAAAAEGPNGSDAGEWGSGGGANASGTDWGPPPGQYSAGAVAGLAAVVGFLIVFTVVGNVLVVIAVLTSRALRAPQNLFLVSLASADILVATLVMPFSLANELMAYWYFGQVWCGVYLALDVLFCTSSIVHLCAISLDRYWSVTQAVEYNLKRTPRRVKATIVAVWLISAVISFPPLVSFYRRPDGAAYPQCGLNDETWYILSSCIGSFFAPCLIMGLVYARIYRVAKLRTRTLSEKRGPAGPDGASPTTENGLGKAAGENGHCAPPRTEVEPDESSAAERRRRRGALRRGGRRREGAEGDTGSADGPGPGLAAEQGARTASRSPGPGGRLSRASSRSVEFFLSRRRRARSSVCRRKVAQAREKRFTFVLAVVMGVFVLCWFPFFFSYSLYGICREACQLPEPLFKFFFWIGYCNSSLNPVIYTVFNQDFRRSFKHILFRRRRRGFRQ
T4 sequence (P19328 whole entry): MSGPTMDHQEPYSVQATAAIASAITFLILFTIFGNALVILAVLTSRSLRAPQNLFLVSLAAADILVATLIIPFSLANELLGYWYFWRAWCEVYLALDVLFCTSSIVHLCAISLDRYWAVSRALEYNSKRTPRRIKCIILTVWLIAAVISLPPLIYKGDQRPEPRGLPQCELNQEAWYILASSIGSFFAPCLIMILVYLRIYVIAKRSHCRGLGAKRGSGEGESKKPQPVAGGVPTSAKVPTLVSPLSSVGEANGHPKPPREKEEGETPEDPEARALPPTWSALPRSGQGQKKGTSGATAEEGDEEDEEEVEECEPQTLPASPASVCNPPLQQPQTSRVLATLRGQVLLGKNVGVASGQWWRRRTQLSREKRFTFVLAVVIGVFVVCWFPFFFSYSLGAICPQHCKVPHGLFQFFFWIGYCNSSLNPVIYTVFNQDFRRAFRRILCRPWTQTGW
T4 sequence (P22909 whole entry): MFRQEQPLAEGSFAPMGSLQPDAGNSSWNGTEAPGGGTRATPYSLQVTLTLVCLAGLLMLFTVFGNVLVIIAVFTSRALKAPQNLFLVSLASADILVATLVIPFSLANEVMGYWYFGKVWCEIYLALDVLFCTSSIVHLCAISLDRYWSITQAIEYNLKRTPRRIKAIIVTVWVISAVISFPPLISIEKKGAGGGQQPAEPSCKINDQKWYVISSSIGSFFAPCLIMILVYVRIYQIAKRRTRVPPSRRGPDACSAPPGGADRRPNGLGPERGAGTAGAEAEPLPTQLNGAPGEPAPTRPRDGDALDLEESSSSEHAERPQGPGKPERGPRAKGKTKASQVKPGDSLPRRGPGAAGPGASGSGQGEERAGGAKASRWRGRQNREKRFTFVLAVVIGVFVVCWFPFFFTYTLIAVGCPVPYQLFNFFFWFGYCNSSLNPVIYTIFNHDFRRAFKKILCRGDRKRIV
Description: Binding affinity towards alpha-2 adrenergic receptor of rat brain.

Assay [11] has as its target T3, Adrenergic receptor alpha-2 (Homo sapiens). Description: Compound was evaluated for alpha adrenoceptor agonistic activity towards alpha-2 adrenergic receptor of isolated guinea pig ileum. The format is functional, tissue-based. The conditions noted are these: Cavia porcellus, target entry is the homologue from another species.
The target in assay [12] is T5, Adrenergic receptor alpha-1 (Rattus norvegicus, UniProt P15823+P23944+P43140).
T5 sequence (P15823 whole entry): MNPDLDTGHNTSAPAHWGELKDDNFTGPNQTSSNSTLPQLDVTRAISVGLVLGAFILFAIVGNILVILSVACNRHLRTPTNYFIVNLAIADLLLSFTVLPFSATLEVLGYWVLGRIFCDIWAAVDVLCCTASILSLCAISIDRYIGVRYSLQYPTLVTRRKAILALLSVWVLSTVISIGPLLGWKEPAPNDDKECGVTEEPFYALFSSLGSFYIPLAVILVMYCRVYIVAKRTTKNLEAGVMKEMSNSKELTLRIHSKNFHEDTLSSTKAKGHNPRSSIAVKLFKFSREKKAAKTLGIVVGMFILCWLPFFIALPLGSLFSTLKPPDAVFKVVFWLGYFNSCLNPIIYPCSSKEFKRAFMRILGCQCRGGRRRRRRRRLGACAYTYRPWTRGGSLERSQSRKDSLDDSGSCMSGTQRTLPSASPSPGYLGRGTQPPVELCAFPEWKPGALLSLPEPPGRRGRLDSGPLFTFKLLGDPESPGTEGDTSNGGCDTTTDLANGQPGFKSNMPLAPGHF
T5 sequence (P23944 whole entry): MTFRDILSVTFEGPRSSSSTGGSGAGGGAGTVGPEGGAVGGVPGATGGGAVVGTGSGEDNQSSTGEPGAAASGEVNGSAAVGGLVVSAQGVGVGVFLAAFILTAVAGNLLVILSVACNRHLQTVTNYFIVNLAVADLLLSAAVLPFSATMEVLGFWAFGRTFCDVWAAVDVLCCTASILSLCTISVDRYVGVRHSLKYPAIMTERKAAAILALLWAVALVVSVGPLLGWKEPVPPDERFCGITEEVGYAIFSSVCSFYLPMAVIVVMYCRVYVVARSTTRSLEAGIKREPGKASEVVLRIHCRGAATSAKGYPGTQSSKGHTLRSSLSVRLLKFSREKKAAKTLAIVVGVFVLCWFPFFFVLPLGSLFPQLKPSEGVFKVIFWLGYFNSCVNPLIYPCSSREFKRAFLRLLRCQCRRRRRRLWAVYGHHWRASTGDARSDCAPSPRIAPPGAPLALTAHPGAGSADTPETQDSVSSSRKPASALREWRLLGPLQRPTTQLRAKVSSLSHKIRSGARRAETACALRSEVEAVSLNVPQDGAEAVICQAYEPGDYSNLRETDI
T5 sequence (P43140 whole entry): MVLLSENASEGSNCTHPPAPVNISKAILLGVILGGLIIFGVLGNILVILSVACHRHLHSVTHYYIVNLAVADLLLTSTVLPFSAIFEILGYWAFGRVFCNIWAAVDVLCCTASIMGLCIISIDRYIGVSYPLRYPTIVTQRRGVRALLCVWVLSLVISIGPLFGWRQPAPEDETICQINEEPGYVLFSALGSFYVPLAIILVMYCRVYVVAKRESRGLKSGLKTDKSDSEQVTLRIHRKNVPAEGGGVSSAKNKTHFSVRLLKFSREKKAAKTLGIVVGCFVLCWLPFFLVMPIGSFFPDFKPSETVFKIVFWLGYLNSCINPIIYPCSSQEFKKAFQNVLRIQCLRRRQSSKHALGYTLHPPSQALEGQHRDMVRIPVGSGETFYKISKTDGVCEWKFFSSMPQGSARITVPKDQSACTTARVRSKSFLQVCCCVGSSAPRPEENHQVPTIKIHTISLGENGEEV
Description: Binding affinity towards Alpha-1 adrenergic receptor of rat brain.

Assay [13] has as its target Beta-1 adrenergic receptor (Cavia porcellus) (UniProt B0FL73). The assay can be described thus: Intrinsic activity was expressed as the ratio between maximal response elicited by compound and that elicited by full agonist ISO towards beta 1 receptor of isolated guinea pig atria. Format: functional.
Assay [14] can be described thus: Compound was evaluated for Alpha-1 adrenergic receptor agonistic activity towards alpha 1 receptor of isolated rabbit aortic strips. The format is functional, Oryctolagus cuniculus.
In assay [15] the target is Beta-1 adrenergic receptor (Cavia porcellus) (UniProt B0FL73). This is another data set of the same source.
Sequence of Beta-1 adrenergic receptor (Cavia porcellus) (B0FL73 1-467): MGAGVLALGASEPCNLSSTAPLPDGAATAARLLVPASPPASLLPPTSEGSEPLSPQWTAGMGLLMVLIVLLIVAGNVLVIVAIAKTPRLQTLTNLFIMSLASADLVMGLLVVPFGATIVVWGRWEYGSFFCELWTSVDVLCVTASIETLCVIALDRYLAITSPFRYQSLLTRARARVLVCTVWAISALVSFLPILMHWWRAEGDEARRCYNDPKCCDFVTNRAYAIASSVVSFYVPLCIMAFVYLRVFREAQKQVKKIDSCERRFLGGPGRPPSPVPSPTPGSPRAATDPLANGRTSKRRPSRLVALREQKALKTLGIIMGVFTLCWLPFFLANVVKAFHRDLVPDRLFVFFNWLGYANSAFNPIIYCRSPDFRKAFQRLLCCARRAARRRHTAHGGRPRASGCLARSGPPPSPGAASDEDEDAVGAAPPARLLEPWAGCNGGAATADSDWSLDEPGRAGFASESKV
Description: Compound was evaluated for beta adrenoceptor agonistic activity towards Beta-1 adrenergic receptor of isolated guinea pig atria (exp 2)
The target of assay [16] is T3, Adrenergic receptor alpha-2 (Homo sapiens). The assay can be described thus: Intrinsic activity was expressed as the ratio between maximal response elicited by compound and that elicited by full agonist NE towards alpha-2 adrenergic receptor of isolated guinea pig ileum. Format: functional, tissue-based. The conditions noted are these: Cavia porcellus.
Assay [17] concerns the target Beta-1 adrenergic receptor (Cavia porcellus) (UniProt B0FL73). Description: Compound was evaluated for beta adrenoceptor agonistic activity towards Beta-1 adrenergic receptor of isolated guinea pig atria (exp 1). Format: functional.
Assay [18] has as its target Beta-2 adrenergic receptor (Cavia porcellus) (UniProt Q8K4Z4). This is another data set of the same source.
Description: Compound was evaluated for beta adrenoceptor agonistic activity towards Beta-2 adrenergic receptor of isolated guinea pig tracheal strip (exp 1)
The target in assay [19] is T1, Adrenergic receptor alpha-1 (Rattus norvegicus). The assay can be described thus: Intrinsic activity was expressed as the ratio between maximal response elicited by compound and that elicited by full agonist NE towards Alpha-1 adrenergic receptor of isolated rat vas deferens; ND=No data. The format is functional.
For assay [20], the target named is T4, Adrenergic receptor alpha-2. The assay can be described thus: Compound was evaluated for alpha adrenergic binding affinity towards Alpha-2 adrenergic receptor of rat brain.
Assay [21] deals with T5, Adrenergic receptor alpha-1. The assay can be described thus: Compound was evaluated for alpha adrenergic binding affinity towards alpha-1 receptor of rat brain.

Sequence of Beta-2 adrenergic receptor (Cavia porcellus) (Q8K4Z4 whole entry, looked up): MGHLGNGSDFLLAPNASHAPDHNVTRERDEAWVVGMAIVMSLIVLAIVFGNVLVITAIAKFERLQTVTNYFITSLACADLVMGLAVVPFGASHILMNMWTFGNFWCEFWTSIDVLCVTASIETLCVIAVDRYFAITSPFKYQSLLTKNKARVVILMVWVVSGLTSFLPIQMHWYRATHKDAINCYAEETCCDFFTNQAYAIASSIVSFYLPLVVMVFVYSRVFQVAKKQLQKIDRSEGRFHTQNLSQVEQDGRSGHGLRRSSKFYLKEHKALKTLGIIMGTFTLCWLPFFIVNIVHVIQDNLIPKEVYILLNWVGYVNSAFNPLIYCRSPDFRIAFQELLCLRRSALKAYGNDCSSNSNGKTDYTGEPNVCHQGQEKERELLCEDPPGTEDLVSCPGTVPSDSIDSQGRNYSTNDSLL
T2 sequence (Q28044 whole entry): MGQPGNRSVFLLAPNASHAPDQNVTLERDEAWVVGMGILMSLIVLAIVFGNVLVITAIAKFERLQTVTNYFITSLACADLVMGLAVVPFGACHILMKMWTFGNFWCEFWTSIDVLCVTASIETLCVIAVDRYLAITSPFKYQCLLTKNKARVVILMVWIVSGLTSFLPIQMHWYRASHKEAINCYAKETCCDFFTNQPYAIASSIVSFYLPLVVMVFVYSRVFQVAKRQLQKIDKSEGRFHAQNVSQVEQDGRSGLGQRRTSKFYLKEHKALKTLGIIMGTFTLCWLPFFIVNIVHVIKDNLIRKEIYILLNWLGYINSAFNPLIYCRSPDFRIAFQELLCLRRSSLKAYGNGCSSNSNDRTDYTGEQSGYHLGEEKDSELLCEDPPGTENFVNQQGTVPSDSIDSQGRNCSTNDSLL

For orientation: Ki means the dissociation constant of the complex between target and ligand, obtained from inhibition or displacement. Low values mean tighter binding, high ones weaker binding. For the molecule `NC[C@H](O)c1ccc(O)c(O)c1` [NOREPINEPHRINE], the pD2 in [1] was found to be 6.32; in [3] it was 6.03; in assay [5] it was 6.56; in [6] it was 5.12. Further, the Intrinsic activity in [2] is 1. In [4], this molecule returned a Ki of 6 µM.
As for `CC(C)N[C@@H]1CCc2c(ccc(O)c2O)[C@H]1O`, the Ki in assay [7] is 0.76 µM; in assay [8] it was 0.062 µM; in assay [10], 5.8 µM; in assay [12], greater than 100 µM. Also, the pD2 in assay [9] is 8.41; in assay [11] it was 5.6; in assay [14], less than 3.5; in assay [15] it was 7.56; in assay [17], 6.72; in assay [18], 8.06. Further, the Intrinsic activity is 1 in [13] and 0.72 in [16].
Turning to `CC(C)NC1CCc2cc(O)c(O)cc2[C@H]1O` (stereo partly drawn), the Ki in assay [7] was greater than 100 µM; in assay [12], 1.2 µM; in assay [20], 1.57 µM; in assay [4] it was greater than 100 µM. Also, the pD2 was 4.44 in assay [1], less than 3.5 in assay [19], 6.17 in assay [3] and 5.72 in [5].
As for `CC(C)NCC(O)c1ccc(O)c(O)c1` (stereo not drawn) [ISOPROTERENOL], the results for the Ki in [21] and in assay [20] were 35.5 µM and 21 µM, respectively.

These data come from ChEMBL document CHEMBL1125402, “Conformational effects on the activity of drugs. 13. A revision of previously proposed models for the activation of alpha- and beta-adrenergic receptors” (J Med Chem, 1992).
